According to patent publication US20190064146A1, “IMMUNE CELLS HAVING INCREASED IMMUNITY OR RESISTANCE TO AN IMMUNOSUPPRESSIVE CYTOKINE AND USE OF THE SAME” (Innate Tumor Immunity, INC., priority 2015, published 2019):

System: EG.7 tumor cells
Test: Adoptive transfer of in vitro activated OT-1 CD8+ T cells into mice with established EG.7 flank tumors
Type: in vivo
Settings: OT-1 splenocytes activated with OVA antigen 1 μg/mL plus TGF-β 10 ng/mL and IL-1β 10 ng/mL for 5 days; 5×10^6 CD8+ cells intraperitoneally into C57BL/6J mice with 7-day EG.7 tumors
Protocol: To induce tumor, 1×10^6 EG.7 tumor cells, which expressed the OVA antigen, were injected subcutaneously on the flank of Black/6 mice. In this condition, after 7 days EG.7 cells from palpable tumors. To generate anti-tumor T cells, splenocytes from OT-1 mice, which have a transgenic TCR that recognize OVA antigen, were activated with OVA antigen (1 μg/mL) in the presence of TGF-β, or the presence of TGF-β and IL-1β. After 5 days CD8^+ cells were purified. […] Tumor volume was recorded 3 times a week until the end of the study. […]
OT-1 mice were anesthetized and spleens were harvested and strained through a 70-um filter with PBS with 10% FBS. […] After washing, cells were counted and placed in tissue culture at a final concentration of 1×10^6 cells/mL. […]
Tumors were established with subcutaneous flank injections of 1×10^6 cells suspended in 100 μL PBS. Tumors were measured three times a week and volumes were estimated using the formula 3.14×[largest diameter×(perpendicular diameter)^2]/6. […]
The average tumor volumes of the combination treatment group over time was plotted and compared to control treated with vehicle. […] For statistical comparisons, Two-Way Anova with Bonferroni correction was calculated with GaphPrism software.

IL-1β: exemplary NLRP3 activator; cytokine interleukin-1β added to T cell culture
CD8+ antitumor activity against established cancer (tumor volume): promotes CD8^+ antitumor activity against established cancer
